The record followed here is ChEMBL document CHEMBL5356979, “Synthesis, antibiofilm activity and molecular docking of N-acylhomoserine lactones containing cinammic moieties” (Bioorg Med Chem Lett, 2024).

In data set [1] the test system is Klebsiella pneumoniae. Description: Antibacterial activity against Klebsiella pneumoniae assessed as inhibition of bacterial growth at 50 uM incubated for 24 hrs by microdilution method. In kind it is functional, organism-based. (Broth dilution looks for growth in wells or tubes with falling amounts of substance.)
Data set [2] deals with Pseudomonas aeruginosa. Description: Antibiofilm activity against Pseudomonas aeruginosa assessed as inhibition of biofilm formation at 50 uM incubated for 24 hrs by crystal violet staining based analysis relative to control. In kind it is functional.
For data set [3], the system named is Klebsiella pneumoniae. In words: Antibiofilm activity against Klebsiella pneumoniae assessed as inhibition of biofilm formation at 50 uM incubated for 24 hrs by crystal violet staining based analysis relative to control. In kind it is functional.
Data set [4] concerns Pseudomonas aeruginosa. Description: Antibacterial activity against Pseudomonas aeruginosa assessed as inhibition of bacterial growth at 50 uM incubated for 24 hrs by microdilution method. In kind it is functional, organism-based.
The subject of data set [5] is Staphylococcus aureus. Description: Antibacterial activity against Staphylococcus aureus assessed as inhibition of bacterial growth at 50 uM incubated for 24 hrs by microdilution method. In kind it is functional, organism-based.
Data set [6] in a line: Inhibition of quorum sensing system in Chromobacterium violaceum assessed as inhibition of violacein secretion by measuring inhibition halo at 50 uM.
Data set [7] can be described thus: Inhibition of quorum sensing system in Chromobacterium violaceum assessed as inhibition of violacein secretion by measuring inhibition halo at 100 uM.
The test system of data set [8] is Staphylococcus aureus. In words: Antibiofilm activity against Staphylococcus aureus assessed as inhibition of biofilm formation at 50 uM incubated for 24 hrs by crystal violet staining based analysis relative to control. In kind it is functional.
Data set [9] can be described thus: Cytotoxicity against green monkey COS-7 cells assessed as inhibition of cell growth at 100 uM relative to control. In kind it is toxicity, cell-based. The note with it: chlorocebus aethiops.
The nature of data set [10]: Aqueous solubility of compound. The note with it: buffer. In kind it is physicochemical.
Data set [11] concerns Rhodopseudomonas palustris. In words: Antibiofilm activity against Rhodopseudomonas palustris assessed as inhibition of biofilm formation at 1 uM relative to control. In kind it is functional.

Active and inactive are the calls of the source. The rule behind the calls is not given here.

As usually defined, the inhibition is how much of the control response was suppressed. As for `O=C(/C=C/c1ccccc1)N[C@H]1CCOC1=O`, the outcome with Klebsiella pneumoniae [1], with Pseudomonas aeruginosa [4] and in the data set on Staphylococcus aureus [5] was inactive. Besides, the inhibition at 50 µM was determined as 29.1% with Pseudomonas aeruginosa [2], 0% in the data set on Klebsiella pneumoniae [3] and 18% with Staphylococcus aureus [8]. For the same compound, the inhibition zone (IZ) in data set [6] is 1.3 mm; in data set [7] it was 0.6 mm.

With `O=C(/C=C/C=C/c1ccccc1)N[C@H]1CCOC1=O`, the outcome in the data set with Klebsiella pneumoniae [1], with Pseudomonas aeruginosa [4] and with Staphylococcus aureus [5] was inactive. Besides, the inhibition at 100 µM in [9] was 0%. Moreover, the inhibition at 50 µM with Pseudomonas aeruginosa [2] is 30.2%; in the data set with Klebsiella pneumoniae [3], 28.3%; with Staphylococcus aureus [8], 14%. Further, the inhibition zone (IZ) in [6] is 2.2 mm; in data set [7], 2.7 mm.

As for `CC(C)c1ccc(/C=C/C(=O)N[C@H]2CCOC2=O)cc1`, the outcome in the data set on Klebsiella pneumoniae [1], in the data set with Pseudomonas aeruginosa [4] and in the data set on Staphylococcus aureus [5] was inactive. The inhibition at 50 µM came to 23.7% in the data set with Pseudomonas aeruginosa [2], 17.9% in the data set on Klebsiella pneumoniae [3] and 16.1% with Staphylococcus aureus [8].

On to `Cn1cccc1/C=C/C(=O)N[C@H]1CCOC1=O`, for which the result with Klebsiella pneumoniae [1], with Pseudomonas aeruginosa [4] and in the data set with Staphylococcus aureus [5] was inactive. Further, in [10], the solubility result is listed as “Insoluble”. Also, the inhibition at 50 µM with Pseudomonas aeruginosa [2], with Klebsiella pneumoniae [3] and in the data set on Staphylococcus aureus [8] was 0% each time.

In the case of `O=C(/C=C/c1cccnc1)N[C@H]1CCOC1=O`, the result in the data set on Klebsiella pneumoniae [1], in the data set with Pseudomonas aeruginosa [4] and with Staphylococcus aureus [5] was inactive. Also, the inhibition at 50 µM is 14.2% in the data set with Pseudomonas aeruginosa [2], 0% in the data set on Klebsiella pneumoniae [3] and 0% in the data set with Staphylococcus aureus [8].

For the compound `COc1cccc(/C=C/C(=O)N[C@H]2CCOC2=O)c1`, the outcome in the data set with Klebsiella pneumoniae [1], in the data set on Pseudomonas aeruginosa [4] and in the data set with Staphylococcus aureus [5] was inactive. Besides, in data set [10], the solubility result was “Insoluble”. Also, the inhibition at 50 µM came to 0% in the data set with Pseudomonas aeruginosa [2], 22.3% in the data set with Klebsiella pneumoniae [3] and 27.3% in the data set on Staphylococcus aureus [8].

Take `Cn1c(/C=C/C(=O)N[C@H]2CCOC2=O)cc2ccccc21`: the result in the data set with Klebsiella pneumoniae [1], with Pseudomonas aeruginosa [4] and with Staphylococcus aureus [5] was inactive. In data set [10], the solubility entry is listed as “Insoluble”. For the same compound, the inhibition at 50 µM in the data set on Pseudomonas aeruginosa [2] worked out at 0%; in the data set on Klebsiella pneumoniae [3] it was 0%; with Staphylococcus aureus [8], 0.5%.

In the case of `O=C(/C=C/c1ccco1)N[C@H]1CCOC1=O`, the outcome in the data set on Klebsiella pneumoniae [1], in the data set with Pseudomonas aeruginosa [4] and in the data set on Staphylococcus aureus [5] was inactive. For the same compound, the inhibition at 50 µM in the data set with Pseudomonas aeruginosa [2] was determined as 24.3%; in the data set with Klebsiella pneumoniae [3], 0%; in the data set on Staphylococcus aureus [8], 18.2%.

Regarding `CC(C)=CCC/C(C)=C/C(=O)N[C@H]1CCOC1=O`, the result in the data set with Klebsiella pneumoniae [1], in the data set with Pseudomonas aeruginosa [4] and with Staphylococcus aureus [5] was inactive. The inhibition at 50 µM was determined as 25.3% in the data set with Pseudomonas aeruginosa [2], 24.5% in the data set on Klebsiella pneumoniae [3] and 26.5% in the data set with Staphylococcus aureus [8].

For the compound `COc1cc(/C=C/C(=O)N[C@H]2CCOC2=O)cc(OC)c1OC`, the result with Klebsiella pneumoniae [1], in the data set with Pseudomonas aeruginosa [4] and in the data set with Staphylococcus aureus [5] was inactive. In addition, the inhibition at 100 µM in data set [9] is 3.2%. Besides, the inhibition at 50 µM in the data set on Pseudomonas aeruginosa [2] came out at 26.9%; with Klebsiella pneumoniae [3], 0%; with Staphylococcus aureus [8], 37.1%. For the same compound, the inhibition zone (IZ) in data set [6] is 2.7 mm; in [7] it was 3.7 mm.

Consider `O=C(/C=C/c1ccc(Cl)cc1)N[C@H]1CCOC1=O`, for which the outcome in the data set on Klebsiella pneumoniae [1], in the data set on Pseudomonas aeruginosa [4] and with Staphylococcus aureus [5] was inactive. In addition, the inhibition at 50 µM in the data set on Pseudomonas aeruginosa [2] was determined as 23.7%; with Klebsiella pneumoniae [3] it was 0%; in the data set on Staphylococcus aureus [8], 12%. The inhibition at 1 µM in data set [11] is 30%.

Turning to `Cc1ccc(/C=C/C(=O)N[C@H]2CCOC2=O)cc1`, the outcome with Klebsiella pneumoniae [1], in the data set on Pseudomonas aeruginosa [4] and with Staphylococcus aureus [5] was inactive. Further, the inhibition at 50 µM with Pseudomonas aeruginosa [2] worked out at 29.8%; in the data set with Klebsiella pneumoniae [3] it was 16.9%; with Staphylococcus aureus [8], 4.4%. Besides, the inhibition zone (IZ) in data set [6] came to 1.3 mm; in data set [7] it was 2 mm.

`COc1ccc(/C=C/C(=O)N[C@H]2CCOC2=O)cc1`: the outcome with Klebsiella pneumoniae [1], with Pseudomonas aeruginosa [4] and in the data set with Staphylococcus aureus [5] was inactive. The values for the inhibition at 50 µM in the data set with Pseudomonas aeruginosa [2], in the data set on Klebsiella pneumoniae [3] and with Staphylococcus aureus [8] were 35.9%, 12% and 8.49%, respectively. Further, the inhibition zone (IZ) was found to be 0.6 mm in data set [6] and 0.3 mm in data set [7].

As for `O=C(/C=C/c1ccc(F)cc1)N[C@H]1CCOC1=O`, the result in the data set with Klebsiella pneumoniae [1], in the data set on Pseudomonas aeruginosa [4] and in the data set with Staphylococcus aureus [5] was inactive. In addition, the inhibition at 50 µM in the data set with Pseudomonas aeruginosa [2] was determined as 20.3%; with Klebsiella pneumoniae [3], 0%; in the data set on Staphylococcus aureus [8], 0%.

As to `O=C(/C=C/c1ccc2c(c1)OCO2)N[C@H]1CCOC1=O`, the outcome with Klebsiella pneumoniae [1], with Pseudomonas aeruginosa [4] and in the data set on Staphylococcus aureus [5] was inactive. Also, the solubility entry in data set [10] is “Insoluble”. Besides, the values for the inhibition at 50 µM in the data set on Pseudomonas aeruginosa [2], with Klebsiella pneumoniae [3] and in the data set with Staphylococcus aureus [8] were 0%, 27.1% and 5%, respectively.

Turning to `O=C(/C=C/c1cccs1)N[C@H]1CCOC1=O`, the result in the data set on Klebsiella pneumoniae [1], with Pseudomonas aeruginosa [4] and in the data set on Staphylococcus aureus [5] was inactive. Moreover, the inhibition at 50 µM in the data set with Pseudomonas aeruginosa [2] is 19.6%; in the data set with Klebsiella pneumoniae [3], 12.6%; with Staphylococcus aureus [8], 15.3%.

Turning to `O=C1C=C(Br)/C(=C/Br)O1`, the inhibition at 50 µM with Pseudomonas aeruginosa [2] turned out to be 40.2%; in the data set on Klebsiella pneumoniae [3] it was 8.4%; in the data set with Staphylococcus aureus [8], 10.1%. In addition, the inhibition zone (IZ) was determined as 1.3 mm in data set [6] and 5.1 mm in [7].

As to `O=C(/C=C/c1cccc(F)c1)N[C@H]1CCOC1=O`, the result in the data set on Klebsiella pneumoniae [1], with Pseudomonas aeruginosa [4] and in the data set with Staphylococcus aureus [5] was inactive. In addition, the solubility entry in data set [10] is “Insoluble”. In addition, the inhibition at 50 µM in the data set with Pseudomonas aeruginosa [2], with Klebsiella pneumoniae [3] and in the data set on Staphylococcus aureus [8] was 0% in each case.

`O=C(/C=C/c1ccc(-c2ccccc2)cc1)N[C@H]1CCOC1=O`: the result in the data set on Klebsiella pneumoniae [1], in the data set with Pseudomonas aeruginosa [4] and in the data set with Staphylococcus aureus [5] was inactive. Further, the solubility result in data set [10] is “Insoluble”. The inhibition at 50 µM turned out to be 0% in the data set with Pseudomonas aeruginosa [2], 0% in the data set on Klebsiella pneumoniae [3] and 8.4% in the data set with Staphylococcus aureus [8].

On to `O=C(/C=C/c1ccc(C(F)(F)F)cc1)N[C@H]1CCOC1=O`, for which the outcome in the data set with Klebsiella pneumoniae [1], in the data set on Pseudomonas aeruginosa [4] and with Staphylococcus aureus [5] was inactive. The inhibition at 50 µM was found to be 0% in the data set on Pseudomonas aeruginosa [2], 30.2% with Klebsiella pneumoniae [3] and 2.2% with Staphylococcus aureus [8].
